# Measured values taken from patent US20140107100A1, “Benzoxazepines as Inhibitors of PI3K/mTOR and Methods of Their Use and Manufacture” (EXELIXIS, INC., priority 2010, published 2014).
# Biological target: mTOR/GbL/Raptor (mTORC1) (Homo sapiens, UniProt P42345)
# Experiment: mTOR/GbL/Raptor (mTORC1) ELISA assay, phosphorylation of 4E-BP1
# Assay type: biochemical
# Conditions: 0.2 nM mTORC1, 40 uM ATP, 50 nM NHis-tagged 4E-BP1, 120 minutes; read-out: IC50 in this assay (mTORC1 ELISA)
# Experimental: The measurement of mTORC1 enzyme activity was performed in an ELISA assay format following the phosphorylation of 4E-BP1 protein. All experiments were performed in the 384-well format. Generally, 0.5 μL DMSO containing varying concentrations of the test Compound was mixed with 15 μL enzyme solution. Kinase reactions were initiated with the addition of 15 μL of substrates-containing solution. The assay conditions were-as follows; 0.2 nM mTORC1, 40 uM ATPand 50 nM NHis-tagged4E-BP1 in20 mM Hepes, pH 7.2, 1 mM DTT, 50 mMNaC1, 10 mM MnC12, 0.02 mg/mL BSA, 0.01% CHAPS, 50 mM β-glycerophosphate. Following an incubation of 120 minutes at anibient temperature, 20 μL of the reaction volume was transferred to a Ni-Chelate-coated 384-well plate. The binding step of the 4E-BP1 protein proceeded for 60 minutes, followed by washing 4 times each with 50 uL of Tris-buffered saline solution (TBS). Anti-phospho-4E-BPl rabbit-IgG ([…]. 1:5000) in 5% BSA-TBST (0.2% Tween-20 in TBS) was added and further incubated for 60 minutes. Incubation with a secondary HRP-tagged anti-IgG was similarly performed after washing off the primary antibody (4 washes of 50 μL). Following the final wash step with TBST, 20 μL of SuperSignal ELISA Femto (Pierce Biotechnology) was added and the luminescence measured using an En Vision plate reader.
row,Compound,IC50 [nM]
1,"Cc1cnccc1N1CCOc2c(C)cc(-c3cnc4sc(N)nc4c3)cc2C1 [Compound 48, 6-[9-methyl-4-(3-methylpyridin-4-yl)-2,3,4,5-tetrahydro-1,4-benzoxazepin-7-yl][1,3]thiazolo[5,4-b]pyridin-2-amine]",100 to 500
2,"Cc1cc(-c2cnc3sc(N)nc3c2)cc2c1OCCN(c1nc(N)nc(C)c1C)C2 [Compound 7, 6-[4-(2-amino-5,6-dimethylpyrimidin-4-yl)-9-methyl-2,3,4,5-tetrahydro-1,4-benzoxazepin-7-yl][1,3]thiazolo[5,4-b]pyridin-2-amine]",100 to 500
3,"Cc1cc(-c2cnc3sc(N)nc3c2)cc2c1OCCN(c1ncccc1C#N)C2 [Compound 38, 2-[7-(2-amino[1,3]thiazolo[5,4-b]pyridin-6-yl)-9-methyl-2,3-dihydro-1,4-benzoxazepin-4(5H)-yl]pyridine-3-carbonitrile]",100 to 500
4,"CCc1c(Cl)nc(CN(C)C)nc1N1CCOc2c(C)cc(-c3cnc4sc(N)nc4c3)cc2C1 [Compound 61, 6-(4-{6-chloro-2-[(dimethylamino)methyl]-5-ethylpyrimidin-4-yl}-9-methyl-2,3,4,5-tetrahydro-1,4-benzoxazepin-7-yl)[1,3]thiazolo[5,4-b]pyridin-2-amine]",≤ 100
5,"COCCc1c(C)nc(C)nc1N1CCOc2c(C)cc(-c3cnc4sc(N)nc4c3)cc2C1 [Compound 132, 6-(4-{2,6-dimethyl-5-[2-(methyloxy)ethyl]pyrimidin-4-yl}-9-methyl-2,3,4,5-tetrahydro-1,4-benzoxazepin-7-yl)[1,3]thiazolo[5,4-b]pyridin-2-amine]",≤ 100
6,"Cc1cc(-c2cnc3sc(N)nc3c2)cc2c1OCCN(c1ncc(C(F)(F)F)c(N)n1)C2 [Compound 13, 6-{4-[4-amino-5-(trifluoromethyl)pyrimidin-2-yl]-9-methyl-2,3,4,5-tetrahydro-1,4-benzoxazepin-7-yl}[1,3]thiazolo[5,4-b]pyridin-2-amine]",100 to 500
7,"Cc1cc(-c2cnc3sc(N)nc3c2)cc2c1OCCN(c1nc(CN(C)C)ncc1C(C)C)C2 [Compound 58, 6-(4-{2-[(dimethylamino)methyl]-5-(1-methylethyl)pyrimidin-4-yl}-9-methyl-2,3,4,5-tetrahydro-1,4-benzoxazepin-7-yl)[1,3]thiazolo[5,4-b]pyridin-2-amine]",≤ 100
8,"C=CCc1c(C)nc(N)nc1N1CCOc2c(C)cc(-c3cnc4sc(N)nc4c3)cc2C1 [Compound 51, 6-{4-(2-amino-6-methyl-5-prop-2-en-1-ylpyrimidin-4-yl)-9-methyl-2,3,4,5-tetrahydro-1,4-benzoxazepin-7-yl][1,3]thiazolo[5,4-b]pyridin-2-amine]",≤ 100
9,"Cc1cc(-c2cnc3sc(N)nc3c2)cc2c1OCCN(c1nc(NCCN(C)C)nc(C)c1C(C)C)C2 [Compound 50, N′-{4-[7-(2-amino[1,3]thiazolo[5,4-b]pyridin-6-yl)-9-methyl-2,3-dihydro-1,4-benzoxazepin-4(5H)-yl]-6-methyl-5-(1-methylethyl)pyrimidin-2-yl}-N,N-dimethylethane-1,2-diamine]",≤ 100
10,"Cc1cc(-c2cnc3sc(N)nc3c2)cc2c1OCCN(c1ncncc1C(C)C)C2 [Compound 116, 6-{9-methyl-4-[5-(1-methylethyl)pyrimidin-4-yl]-2,3,4,5-tetrahydro-1,4-benzoxazepin-7-yl}[1,3]thiazolo[5,4-b]pyridin-2-amine]",≤ 100
11,"Cc1cc(-c2cnc3sc(N)nc3c2)cc2c1OCCN(c1nccnc1C#N)C2 [Compound 34, 3-[7-(2-amino[1,3]thiazolo[5,4-b]pyridin-6-yl)-9-methyl-2,3-dihydro-1,4-benzoxazepin-4(5H)-yl]pyrazine-2-carbonitrile]",≤ 100
12,"Cc1cc(-c2nnc(N)s2)cc2c1OCCN(c1nc(CN(C)CC(F)F)nc(C)c1C(C)C)C2 [Compound 168, 5-{4-[2-{[(2,2-difluoroethyl)(methyl)amino]methyl}-6-methyl-5-(1-methylethyl)pyrimidin-4-yl]-9-methyl-2,3,4,5-tetrahydro-1,4-benzoxazepin-7-yl}-1,3,4-thiadiazol-2-amine]",≤ 100
13,"COCc1c(C)nc(C)nc1N1CCOc2c(C)cc(-c3cnc4sc(N)nc4c3)cc2C1 [Compound 143, 6-(4-{2,6-dimethyl-5-[(methyloxy)methyl]pyrimidin-4-yl}-9-methyl-2,3,4,5-tetrahydro-1,4-benzoxazepin-7-yl)[1,3]thiazolo[5,4-b]pyridin-2-amine]",≤ 100
14,"Cc1cc(-c2cn[nH]c2)cc2c1OCCN(c1nc(N)nc(C)c1C(C)C)C2 [Compound 80, 4-methyl-5-(1-methylethyl)-6-[9-methyl-7-(1H-pyrazol-4-yl)-2,3-dihydro-1,4-benzoxazepin-4(5H)-yl]pyrimidin-2-amine]",≤ 100
15,"CNC(=O)c1sc(N2CCOc3c(C)cc(-c4cnc(Cl)c(NS(C)(=O)=O)c4)cc3C2)nc1C(C)C [Compound 22, 2-[7-{6-chloro-5-[(methylsulfonyl)amino]pyridin-3-yl}-9-methyl-2,3-dihydro-1,4-benzoxazepin-4(5H)-yl]-N-methyl-4-(1-methylethyl)-1,3-thiazole-5-carboxamide]",≤ 100
16,"COCC(C)c1c(C)nc(C)nc1N1CCOc2c(C)cc(-c3cnc4sc(N)nc4c3)cc2C1 (centres unmarked) [Compound 153, 6-(4-{2,6-dimethyl-5-[1-methyl-2-(methyloxy)ethyl]pyrimidin-4-yl}-9-methyl-2,3,4,5-tetrahydro-1,4-benzoxazepin-7-yl)[1,3]thiazolo[5,4-b]pyridin-2-amine]",≤ 100
17,"Cc1cc(-c2cnc(Cl)c(NS(C)(=O)=O)c2)cc2c1OCCN(c1ncc(C(F)(F)F)c(N)n1)C2 [Compound 15, N-(5-{4-[4-amino-5-(trifluoromethyl)pyrimidin-2-yl]-9-methyl-2,3,4,5-tetrahydro-1,4-benzoxazepin-7-yl}-2-chloropyridin-3-yl)methanesulfonamide]",100 to 500
18,"Cc1cc(-c2cnc(Cl)c(NS(C)(=O)=O)c2)cc2c1OCCN(c1nc(CNCCF)nc(C)c1C(C)C)C2 [Compound 161, N-(2-chloro-5-{4-[2-{[(2-fluoroethyl)amino]methyl}-6-methyl-5-(1-methylethyl)pyrimidin-4-yl]-9-methyl-2,3,4,5-tetrahydro-1,4-benzoxazepin-7-yl}pyridin-3-yl)methanesulfonamide]",≤ 100
19,"Cc1cc(-c2cnc3sc(N)nc3c2)cc2c1OCCN(c1nc(CNC3CC3)nc(C)c1C(C)C)C2 [Compound 121, 6-(4-{2-[(cyclopropylamino)methyl]-6-methyl-5-(1-methylethyl)pyrimidin-4-yl}-9-methyl-2,3,4,5-tetrahydro-1,4-benzoxazepin-7-yl)[1,3]thiazolo[5,4-b]pyridin-2-amine]",≤ 100
20,"Cc1cnc(N)nc1N1CCOc2c(C)cc(-c3nnc(N)s3)cc2C1 [Compound 178, 4-[7-(5-amino-1,3,4-thiadiazol-2-yl)-9-methyl-2,3-dihydro-1,4-benzoxazepin-4(5H)-yl]-5-methylpyrimidin-2-amine]",≤ 100
21,"Cc1cc(-c2cnc3sc(N)nc3c2)cc2c1OCCN(c1ncnc3c1CC(C)(C)C=C3)C2 [Compound 23, 6-[4-(6,6-dimethyl-5,6-dihydroquinoazolin-4-yl)-9-methyl-2,3,4,5-tetrahydro-1,4-benzoxazepin-7-yl][1,3]thiazolo[5,4-b]pyridin-2-amine]",≤ 100
22,"C=C(C)c1c(C)nc(N)nc1N1CCOc2c(C)cc(-c3cnc4sc(N)nc4c3)cc2C1 [Compound 130, 6-{4-[2-amino-6-methyl-5-(1-methylethenyl)pyrimidin-4-yl]-9-methyl-2,3,4,5-tetrahydro-1,4-benzoxazepin-7-yl}[1,3]thiazolo[5,4-b]pyridin-2-amine]",≤ 100
23,"Cc1cc(-c2cnc3sc(N)nc3c2)cc2c1OCCN(c1nc(N)nc(C)c1-c1cccc(F)c1)C2 [Compound 49, 6-{4-[2-amino-5-(3-fluorophenyl)-6-methylpyrimidin-4-yl]-9-methyl-2,3,4,5-tetrahydro-1,4-benzoxazepin-7-yl}[1,3]thiazolo[5,4-b]pyridin-2-amine]",≤ 100
24,"Cc1cc(-c2cnc3sc(N)nc3c2)cc2c1OCCN(c1nc(CNCC(F)(F)F)nc(C)c1C(C)C)C2 [Compound 103, 6-{9-methyl-4-[6-methyl-5-(1-methylethyl)-2-{[(2,2,2-trifluoroethyl)amino]methyl}pyrimidin-4-yl]-2,3,4,5-tetrahydro-1,4-benzoxazepin-7-yl}[1,3]thiazolo[5,4-b]pyridin-2-amine]",100 to 500
25,"Cc1cc(-c2cnc3sc(N)nc3c2)cc2c1OCCN(c1nc(CF)nc(C)c1C(C)C)C2 [Compound 120, 6-{4-[2-(fluoromethyl)-6-methyl-5-(1-methylethyl)pyrimidin-4-yl]-9-methyl-2,3,4,5-tetrahydro-1,4-benzoxazepin-7-yl}[1,3]thiazolo[5,4-b]pyridin-2-amine]",≤ 100
26,"COc1ccc(-c2cc(C)c3c(c2)CN(c2nc(N)nc(C)c2C(C)C)CCO3)cn1 [Compound 74, 4-methyl-5-(1-methylethyl)-6-{9-methyl-7-[6-(methyloxy)pyridin-3-yl]-2,3-dihydro-1,4-benzoxazepin-4(5H)-yl}pyrimidin-2-amine]",100 to 500
